{"source": "patent US7553824B2", "about": "“Kit for determining polysaccharide-binding activity of mononuclear cells present in peripheral blood” (Ajinomoto Co., Inc., priority 2004, dated 2009)", "key": {"S180 mouse sarcoma cells": {"tested_on": "S180 mouse sarcoma cells", "details": "S180 subcutaneously transplanted, cited from earlier work"}, "monocytes": {"tested_on": "monocytes", "assay": "Test on binding-inhibitory effect of lentinan, human blood", "details": "100 μg/mL lentinan added before 10 μg/mL fluorescein-labeled lentinan, Cases 3 and 4", "description": "To the human blood sample, there was added the solution of lentinan (reference reagent 2) in a concentration of […], the resulting mixture was cultured at 37° C. for 15 minutes, fluorescein-labeled lentinan was then added thereto in a concentration of 10 μg/mL and the resulting mixture was further cultivated at 37° C. for additional 30 minutes. Thereafter, a PE-labeled antibody (available from Caltag Company) against human CD14 was added thereto, the resulting mixture was cultured at 37° C. for 30 minutes, 2 mL/tube of FACS Lysing Solution (a hemolysis/fixation liquid available from BD Company; diluted 10 times with distilled water) and then the resulting mixture was allowed to stand at room temperature for 10 minutes for the hemolysis of the blood sample. The subsequent operations and analysis were carried out by repeating the same procedures used above in the binding ability-determining method (in the foregoing paragraph) (the results thus obtained are shown in FIG. 7 (indicated by LNT+FL)). The similar analysis was carried out using fluorescein-labeled dextran as a control (reference reagent 1) for the fluorescein-labeled lentinan."}, "[1]": {"tested_on": "blood cells (monocytes, granulocytes, lymphocytes)", "assay": "Test on binding-inhibitory effect of lentinan, mouse whole blood", "set-up": "species or system ICR mice", "details": "50 μg/mL un-labeled lentinan added before 5-40 μg/mL fluorescein-labeled lentinan, one hour", "description": "Upon the determination of the binding ability and prior to the dispensation of the whole blood into tubes, a 2 mg/mL lentinan solution diluted 10 times with PBS(−) was introduced into each tube in an amount of 25 μL/tube while ice-cooling the tubes, then the whole blood was dispensed into the tubes in an amount of 65 μL/tube and thereafter, a solution of fluorescein-labeled lentinan was added to each tube in an amount of 10 μL/tube (the final concentration of the lentinan solution for inhibition was set at 50 μg/mL). Then the subsequent operations were carried out according to the same procedures used above in the method for determining the binding ability (the previous section). (The results thus obtained are shown in FIG. 1 (indicated by FL+L50))."}}, "note": "Where two headings read alike, the source gives them in different places."}
{"substance": "lentinan", "values": [{"measurement": "anti-tumor effect", "setting": "S180 mouse sarcoma cells; C3H mice", "value": "weak anti-tumor effects"}, {"measurement": "anti-tumor effect", "setting": "S180 mouse sarcoma cells; C57BL/6 mice", "value": "medium anti-tumor effects"}, {"measurement": "anti-tumor effect", "setting": "S180 mouse sarcoma cells; ICR and BALB/c mice", "value": "higher anti-tumor effects"}, {"measurement": "effect on binding of fluorescein-labeled lentinan with cells", "setting": "monocytes", "value": "inhibited"}, {"measurement": "effect on the binding ability of cells to fluorescein-labeled lentinan", "setting": "[1]", "value": "inhibited"}]}
